Counter-ions that a name gives are not always drawn.
How the values were obtained:
[1] = tested on: MIA PaCa-2 cells; experiment: MIA PaCa2 cell-based assay (1,536-well high-content imaging ALDEFLUOR assay); parameters: species or system human; conditions: Homo sapiens, 0.5 h, ALDEFLUOR BAAA substrate 500 nM, 30 minutes
Summary of the method: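 MIA PaCa-2 cells (1,000/well), plated overnight, given BAAA substrate (500 nM) plus Hoechst 33342 (0.5 nM), then compound (16-point, 1.4 nM–47.8 μM final; 0.5% DMSO). After 30 min at 37° C, ALDH activity imaged by high-content microscopy as BAA-retaining (FITC) cells versus Hoechst-stained nuclei.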

[2] = target: T1, ALDH1A1 enzyme (Homo sapiens, UniProt P00352); experiment: ALDH1A1 enzymatic assay (in vitro); type: biochemical; conditions: ALDH1A1 enzyme 20 nM, NAD+ 1 mM, propionaldehyde 80 μM; read-out: ALDH1A1 IC50
T1 sequence (P00352 1-501): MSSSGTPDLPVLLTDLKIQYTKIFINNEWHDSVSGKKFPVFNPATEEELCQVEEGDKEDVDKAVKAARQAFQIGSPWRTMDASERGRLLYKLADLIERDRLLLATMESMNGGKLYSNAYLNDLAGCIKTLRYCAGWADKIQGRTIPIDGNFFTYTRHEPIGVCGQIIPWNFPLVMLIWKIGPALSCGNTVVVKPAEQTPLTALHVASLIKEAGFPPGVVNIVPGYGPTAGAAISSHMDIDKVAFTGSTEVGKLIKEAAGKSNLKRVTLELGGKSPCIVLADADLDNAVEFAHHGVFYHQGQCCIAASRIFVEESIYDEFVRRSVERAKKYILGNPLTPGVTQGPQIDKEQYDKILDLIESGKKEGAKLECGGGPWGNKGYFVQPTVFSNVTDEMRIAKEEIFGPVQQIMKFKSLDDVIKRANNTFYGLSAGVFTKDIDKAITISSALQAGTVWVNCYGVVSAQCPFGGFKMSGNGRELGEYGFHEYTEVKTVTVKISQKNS
Summary of the method: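 ALDH1A1 (20 nM final) in 100 mM HEPES pH 7.5, 0.01% Tween 20 was preincubated 15 min at RT with compound (968 pM–57.2 μM final), then started with 1 mM NAD+ and 80 μM propionaldehyde. NADH fluorescence (ex 340/em 450 nm) followed kinetically for 10 min; change normalized to no-inhibitor and no-enzyme controls for percent inhibition and curve fitting.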

| IC50 [1] [µM] | IC50 [2] [nM] | Structure (SMILES) |
| --- | --- | --- |
| 1 to 10 | < 500 | COc1ccc2ncc(C(=O)N3CCC(C(F)(F)F)CC3)c(N3CCC4(CC3)OCCO4)c2c1 [Example 12, (6-methoxy-4-(1,4-dioxa-8-azaspiro[4.5]decan-8-yl)quinolin-3-yl)(4-(trifluoromethyl)piperidin-1-yl)methanone, TFA] |
| 1 to 10 | < 500 | CCNC(=O)N1CCN(C(=O)c2cnc3c(F)c(F)c(F)cc3c2N2CCC3(CC2)OCCO3)CC1 [Example 144, N-ethyl-4-(6,7,8-trifluoro-4-(1,4-dioxa-8-azaspiro[4.5]decan-8-yl)quinoline-3-carbonyl)piperazine-1-carboxamide] |
| > 10 | 1000 to 10000 | C[C@@H]1CN(S(C)(=O)=O)CCN1C(=O)c1cnc2ccc(F)cc2c1N1CCC(C)(C#N)CC1 [Example 241, (R)-1-(6-fluoro-3-(2-methyl-4-(methylsulfonyl)piperazine-1-carbonyl)quinolin-4-yl)-4-methylpiperidine-4-carbonitrile] |
| < 0.5 | < 500 | CS(=O)(=O)N1CCN(C(=O)c2cnc3ccc(F)cc3c2N2CCN(S(=O)(=O)c3ccccc3)CC2)CC1 [Example 254, (6-fluoro-4-(4-(phenylsulfonyl)piperazin-1-yl)quinolin-3-yl)(4-(methylsulfonyl)piperazin-1-yl)methanone] |
| 1 to 10 | < 500 | CS(=O)(=O)C1CCN(C(=O)c2cnc3ccc(F)cc3c2N2CCC3(CC2)OCCO3)CC1 [Example 185, (6-fluoro-4-(1,4-dioxa-8-azaspiro[4.5]decan-8-yl)quinolin-3-yl)(4-(methylsulfonyl)piperidin-1-yl)methanone] |
| 1 to 10 | < 500 | CC1(C#N)CCN(c2c(C(=O)N3CCN(C(=O)C4CC4)CC3)cnc3ccccc23)CC1 [Example 93, 1-(3-(4-(cyclopropanecarbonyl)piperazine-1-carbonyl)quinolin-4-yl)-4-methylpiperidine-4-carbonitrile] |
| > 10 | 1000 to 10000 | CC1(C#N)CCN(c2c(C(=O)N3CCN(S(=O)(=O)C4CC4)CC3)cnc3ccccc23)CC1 [Example 98, 1-(3-(4-(cyclopropylsulfonyl)piperazine-1-carbonyl)quinolin-4-yl)-4-methylpiperidine-4-carbonitrile] |
| > 10 | < 500 | O=C(c1cnc2cc(F)c(F)cc2c1N1CCC2(CC1)OCCO2)N1CCN(S(=O)(=O)N2CCCC2)CC1 [Example 173, (6,7-difluoro-4-(1,4-dioxa-8-azaspiro[4.5]decan-8-yl)quinolin-3-yl)(4-(pyrrolidin-1-ylsulfonyl)piperazin-1-yl)methanone] |
| 1 to 10 | < 500 | CCNC(=O)N1CCN(C(=O)c2cnc3cc(F)c(F)cc3c2N2CCC3(CC2)OCCO3)CC1 [Example 142, 4-(6,7-difluoro-4-(1,4-dioxa-8-azaspiro[4.5]decan-8-yl)quinoline-3-carbonyl)-N-ethylpiperazine-1-carboxamide] |
| 1 to 10 | < 500 | COc1cc2ncc(C(=O)N3CCN(S(=O)(=O)C4CC4)CC3)c(N3CCC(C)(C#N)CC3)c2cc1OC [Example 114, 1-(3-(4-(cyclopropylsulfonyl)piperazine-1-carbonyl)-6,7-dimethoxyquinolin-4-yl)-4-methylpiperidine-4-carbonitrile] |
| 1 to 10 | < 500 | N#CC1(O)CCN(C(=O)c2cnc3ccc(F)cc3c2-c2ccc(C3(C#N)CC3)cc2)CC1 [Cpd. 340, 1-(4-(4-(1-cyanocyclopropyl)phenyl)-6-fluoroquinoline-3-carbonyl)-4-hydroxypiperidine-4-carbonitrile] |
| 1 to 10 | < 500 | COc1c(F)cc2c(N3CCC(C)(C#N)CC3)c(C(=O)N3CCN(C(=O)C4CC4)CC3)cnc2c1F [Example 127, 1-(3-(4-(cyclopropanecarbonyl)piperazine-1-carbonyl)-6,8-difluoro-7-methoxyquinolin-4-yl)-4-methylpiperidine-4-carbonitrile] |
| > 10 | > 10000 | CC1(C#N)CCN(c2c(C(=O)N3CCN(C(=O)C4CC4)C(C)(C)C3)cnc3ccc(F)cc23)CC1 [Example 231, 1-(3-(4-(cyclopropanecarbonyl)-3,3-dimethylpiperazine-1-carbonyl)-6-fluoroquinolin-4-yl)-4-methylpiperidine-4-carbonitrile] |
| 1 to 10 | 1000 to 10000 | COc1ccc2ncc(C(=O)N3CCN(C(=O)C4CC4)CC3)c(N3CCN(S(C)(=O)=O)CC3)c2c1 [Example 19, (4-(cyclopropanecarbonyl)piperazin-1-yl)(6-methoxy-4-(4-(methylsulfonyl)piperazin-1-yl)quinolin-3-yl)methanone, TFA] |
| > 10 | 1000 to 10000 | CN(C)C(=O)Cn1cc(NC(=O)c2cnc3ccc(F)cc3c2-c2ccc(C3(C#N)CC3)cc2)cn1 [Cpd. 346, 4-(4-(1-cyanocyclopropyl)phenyl)-N-(1-(2-(dimethylamino)-2-oxoethyl)-1H-pyrazol-4-yl)-6-fluoroquinoline-3-carboxamide] |
| 0.5 to 1 | < 500 | N#CC1(c2ccc(-c3c(C(=O)N[C@H]4C[C@H](O)C4)cnc4ccc(F)cc34)cc2)CC1 [Cpd. 336, 4-(4-(1-cyanocyclopropyl)phenyl)-6-fluoro-N-((1R,3R)-3-hydroxycyclobutyl)quinoline-3-carboxamide] |
| > 10 | 1000 to 10000 | CS(=O)(=O)N1CCN(C(=O)c2cnc3ccc(F)cc3c2N2CCN(S(C)(=O)=O)CC2)CC1 [Cpd. 307, (6-fluoro-4-(4-(methylsulfonyl)piperazin-1-yl)quinolin-3-yl)(4-(methylsulfonyl)piperazin-1-yl)methanone] |
| 1 to 10 | < 500 | CS(=O)(=O)N1CCN(C(=O)c2cnc3ccc(F)cc3c2-c2ccc(CC#N)cc2)CC1 [Example 212, 2-(4-(6-fluoro-3-(4-(methylsulfonyl)piperazine-1-carbonyl)quinolin-4-yl)phenyl)acetonitrile] |
| 1 to 10 | < 500 | CC1(C#N)CCN(c2c(C(=O)N3CCC(C(=O)C4CC4)CC3)cnc3cc(F)c(F)cc23)CC1 [Example 196, 1-(3-(4-(cyclopropanecareonyl)piperidine-1-carbonyl)-6,7-difluoroquinolin-4-yl)-4-methylpiperidine-4-carbonitrile] |
| 1 to 10 | < 500 | O=C(c1cnc2ccc(F)cc2c1N1CCC2(CCOC2=O)CC1)N1CCN(C(=O)C2CC2)CC1 [Example 248, 8-(3-(4-(cyclopropanecarbonyl)piperazine-1-carbonyl)-6-fluoroquinolin-4-yl)-2-oxa-8-azaspiro[4.5]decan-1-one] |
| 1 to 10 | < 500 | CS(=O)(=O)N1CCN(C(=O)c2cnc3ccc(F)cc3c2N2CCC3(CCOC3=O)CC2)CC1 [Example 249, 8-(6-fluoro-3-(4-(methylsulfonyl)piperazine-1-carbonyl)quinolin-4-yl)-2-oxa-8-azaspiro[4.5]decan-1-one] |
| > 10 | < 500 | COc1ccc2ncc(C(=O)N3CCN(C(=O)C4CC4)CC3)c(N3CCC4(CCCO4)CC3)c2c1 [Example 24, (4-(cyclopropanecarbonyl)piperazin-1-yl)(6-methoxy-4-(1-oxa-8-azaspiro[4.5]decan-8-yl)quinolin-3-yl)methanone] |

From US11795177B2, “Substituted quinoline analogs as aldehyde dehydrogenase 1A1 (ALDH1A1) inhibitors” (THE UNITED STATES OF AMERICA, AS REPRESENTED BY THE …, priority 2017, dated 2023)
